{"source": "patent US7445892B2", "about": "“Method of testing anticancer agent-sensitivity of tumor cells” (Eisai Co., Ltd., priority 2000, dated 2008)", "key": {"HCT116-C9": {"system": "HCT116-C9", "test": "Gene expression analysis using DNA microarray (GeneChip Hu6800)", "assay_type": "cell-based, human", "protocol": "All cells were cultured in RPMI-1640 medium supplemented with 10% of fetal bovine serum, 100 units/ml of penicillin and 100 μg/ml of streptomycin at 37° C. under 5% CO2.\nE7070, or ER-35748 or ER-68487 represented by the structural formula shown below was added to the media of an E7070-susceptible strain HCT116-C9 and an E7070-resistant strain HCT116-C9-C1 at a concentration of 8 μM and the cells were cultured. Then, cells were recovered after 0, 3, 6 and 12 hours. Further, the cells were also cultured for 12 hours without adding the drug and recovered.\nTotal RNA was extracted from these cells and subjected to the subsequent analyses. The RNA extracted from the cells cultured for 12 hours with the drug and the RNA from extracted the cells cultured for 12 hours without the drug were used for the gene expression analysis using a DNA microarray described in Example 2. HCT116-C9 was a substrain isolated from HCT116 derived from human colon cancer (American Type Culture Collection, Manassas, Va., U.S.A.), and HCT116-C9-C1 was an E7070-resistant substrain obtained by culturing this HCT116-C9 in the presence of E7070 with gradually increasing the E7070 concentration.\nTotal RNA was extracted from the recovered cells by using TRIZOL Reagent (Life Technologies Oriental) according to the attached operation manual.\nEach RNA obtained in Example 1 was dissolved in 100 μl of sterilized water treated with diethyl pyrocarbonate (DEPC) and further purified by using RNeasy Column (QIAGEN), and double-stranded cDNA was synthesized by using SuperScript Choice System (Life Technologies Oriental) and a T7-d(T)24 primer.\nFirst, to 10 μg of RNA, 5 μM T7-d(T)24 primer, 1×First strand buffer, 10 mM DTT, 500 μM dNTP mix and 20 units/μl of SuperScript II Reverse Transcriptase were added and the mixture was allowed to react at 42° C. for 1 hour to synthesize single-stranded DNA. Subsequently, to the DNA, 1×Second strand buffer, 200 μM dNTP mix, 67 U/ml of DNA ligase, 270 U/ml of DNA polymerase I and 13 U/ml of RNase H were added and the mixture was allowed to react at 16° C. for 2 hours to synthesize double-stranded cDNA. Further, to the cDNA, 67 U/ml of T4 DNA polymerase I was added and the mixture was allowed to react at 16° C. for 5 minutes and then 10 μl of 0.5 M EDTA was added to terminate the reaction.\nThe obtained cDNA was purified with phenol/chloroform, and a labeling reaction with biotinylated UTP and CTP was carried out by using RNA Transcript Labeling Kit (Enzo Diagnostics) according to the attached operation manual. The reaction product was purified with Rneasy Column and heated in 200 mM Tris/acetate buffer (pH 8.1), 150 mM magnesium acetate, 50 mM potassium acetate at 94° C. for 35 minutes to obtain fragment cRNA.\nThe fragmented cRNA was hybridized with GeneChip Hu6800 (Affymetrix) in 100 mM MES, 1 M sodium salt, 20 mM EDTA and 0.01% Tween 20 at 45° C. for 16 hours. After the hybridization, the GeneChip was washed and stained according to the protocol EukGE-WS2 attached to Affymetrix Fluidics Station. For the staining, streptavidin-phycoerythrin and biotinylated goat anti-streptavidin antibody were used. The stained GeneChip was scanned by using HP Argon Ion Laser Confocal Scanner (Hewlett Packard) to measure its fluorescence intensity. The fluorescence was measured at 570 nm by using an excitation light at 488 nm.\nThe quantitative data analyses were all conducted by using GeneChip Software (Affymetrix). To quantify RNA, an average of “differences [(Perfect match hybridization signal)−(Mismatch signal)]” was obtained for each probe family.\nE7070, or ER-35748 or ER-68487 was added to a medium for HCT116-C9 at a concentration of 8 μM and culture was performed. The results of analysis of RNA extracted from the cells at 12 hours by using GeneChip were compared with the results of RNA analysis for HCT116-C9 cells obtained in the same manner except for not adding the drug. […]"}, "C9-C4": {"system": "C9-C4", "test": "Gene expression analysis using GeneChip in E7070-resistant strain C9-C4", "assay_type": "cell-based, human", "details": "resistant strain C9-C4, 8 μM, 12 hours", "protocol": "The fragmented cRNA was hybridized with GeneChip Hu6800 (Affymetrix) in 100 mM MES, 1 M sodium salt, 20 mM EDTA and 0.01% Tween 20 at 45° C. for 16 hours. After the hybridization, the GeneChip was washed and stained according to the protocol EukGE-WS2 attached to Affymetrix Fluidics Station. For the staining, streptavidin-phycoerythrin and biotinylated goat anti-streptavidin antibody were used. The stained GeneChip was scanned by using HP Argon Ion Laser Confocal Scanner (Hewlett Packard) to measure its fluorescence intensity. The fluorescence was measured at 570 nm by using an excitation light at 488 nm. The quantitative data analyses were all conducted by using GeneChip Software (Affymetrix). To quantify RNA, an average of “differences [(Perfect match hybridization signal)−(Mismatch signal)]” was obtained for each probe family. […] Two kinds of E7070-resistant strains (C9-C1 and another resistant strain (C9-C4) obtained in the same method as C9-C1) were treated with 8 μM of E7070 for 12 hours in the same manner as described above, and variations of the gene expression were analyzed by using GeneChip for the genes listed in Tables 1 and 2."}, "[1]": {"details": "HCT116-C9, 8 μM, 12 hours, compared with cells without drug, change of 1.8 times or more counted"}}, "data": [{"molecule": "NS(=O)(=O)c1ccc(S(=O)(=O)Nc2cccc3c(Cl)c[nH]c23)cc1", "note": "[E7070, N-(3-chloro-7-indolyl)-1,4-benzenedisulfonamide]", "values": [{"measurement": "enhancement of expression of the genes listed in Table 3", "setting": "HCT116-C9; HCT116-C9, 8 μM for 12 hours", "result": "≥ 1.8", "unit": "times"}, {"measurement": "inhibition of expression of the genes listed in Table 4", "setting": "HCT116-C9; HCT116-C9, 8 μM for 12 hours", "result": "≥ 1.8", "unit": "times"}, {"measurement": "expression levels of the genes listed in Table 1", "setting": "HCT116-C9; [1]", "result": "increased"}, {"measurement": "expression levels of the genes listed in Table 2", "setting": "HCT116-C9; [1]", "result": "decreased"}, {"measurement": "variations of the gene expression for the genes listed in Tables 1 and 2", "setting": "C9-C4", "result": "no gene that increased or decreased 1.8 times or more was observed"}]}]}
